The source of these data is US10858335B2 (Rigel Pharmaceuticals, Inc., priority 2014, dated 2020).

This test deals with GDF8 signaling (p-SMAD-3 (Ser423/425)). The test can be described thus: AlphaScreen SureFire SMAD3 (p-Ser423/425) assay, GDF8-stimulated cells (GDF pSMAD). The class given is cell-based. Conditions: GDF8-stimulated, p-SMAD3 AlphaScreen, read-out: GDF pSMAD (MPC11) (inhibition of GDF8 signaling).

Like-named read-outs stand apart in the source and are kept apart here.

`Fc1ccc(-c2ncccc2-c2ccc3nc[nH]c3c2)cc1Cl` [compound 782, 6-(2-(3-Chloro-4-fluorophenyl)pyridin-3-yl)-1H-benzo[d]imidazole]: the IC50 (Mus musculus, MPC-11, MPC11) amounted to 332 nM.

Turning to `Clc1cccc(-c2ncccc2-c2ccc3nc[nH]c3c2)c1` [compound 783], for the setting “Mus musculus, MPC-11, MPC11”, the IC50 turned out to be 231 nM.

Turning to `Cn1cnc2ccc(-c3cccnc3-c3cc(Cl)c(F)cc3F)cc21` [compound 784, 6-(2-(5-Chloro-2,4-difluorophenyl)pyridin-3-yl)-1-methyl-1H-benzo[d]imidazole], for the setting “Mus musculus, MPC-11, MPC11”, the IC50 is 125 nM.

`Cn1cnc2ccc(-c3cccnc3-c3cc(Cl)ccc3F)cc21` [compound 785, 6-(2-(5-Chloro-2-fluorophenyl)pyridin-3-yl)-1-methyl-1H-benzo[d]imidazole]: where the note is “Mus musculus, MPC-11, MPC11”, the IC50 came to 110 nM.

For `Cc1cc(-c2ncccc2-c2ccc3c(N)n[nH]c3c2)ccc1F` [compound 786, 6-(2-(4-Fluoro-3-methylphenyl)pyridin-3-yl)-1H-indazol-3-amine], the IC50 (Mus musculus, MPC-11, MPC11) came out at 340 nM.

For the molecule `Cc1cc(-c2ncccc2-c2ccc3[nH]nc(N)c3c2)ccc1F` [compound 788, 5-(2-(4-Fluoro-3-methylphenyl)pyridin-3-yl)-1H-indazol-3-amine], the IC50 (Mus musculus, MPC-11, MPC11) was 4040 nM.

On to `Cc1cc(-c2ncccc2-c2ccc3ncc(C(=O)N[C@@H]4CN5CCC4CC5)n3c2)ccc1F` [compound 790, (S)-6-(2-(4-Fluoro-3-methylphenyl)pyridin-3-yl)-N-(quinuclidin-3-yl)imidazo[1,2-a]pyridine-3-carboxamide], for which the IC50 (Mus musculus, MPC-11, MPC11) amounted to 4990 nM.

Turning to `Cc1cc(-c2ncccc2-c2ccc3ncc(C(=O)N[C@H]4CN5CCC4CC5)n3c2)ccc1F` [compound 791, (R)-6-(2-(4-Fluoro-3-methylphenyl)pyridin-3-yl)-N-(quinuclidin-3-yl)imidazo[1,2-a]pyridine-3-carboxamide], the IC50 (Mus musculus, MPC-11, MPC11) is 5370 nM.

In the case of `Cc1cc(-c2ncccc2-c2ccn3ncc(C(=O)N[C@@H]4CN5CCC4CC5)c3c2)ccc1F` [compound 792, (S)-5-(2-(4-Fluoro-3-methylphenyl)pyridin-3-yl)-N-(quinuclidin-3-yl)pyrazolo[1,5-a]pyridine-3-carboxamide], the IC50 (Mus musculus, MPC-11, MPC11) turned out to be 2430 nM.

Regarding `Cc1cc(-c2ncccc2-c2ccn3ncc(C(=O)N[C@H]4CN5CCC4CC5)c3c2)ccc1F` [compound 793, (R)-5-(2-(4-Fluoro-3-methylphenyl)pyridin-3-yl)-N-(quinuclidin-3-yl)pyrazolo[1,5-a]pyridine-3-carboxamide], the IC50 (Mus musculus, MPC-11, MPC11) was found to be 2080 nM.

For `Cc1cc(-c2ncccc2-c2ccc3c(N)noc3c2)ccc1F` [compound 794, 6-(2-(4-Fluoro-3-methylphenyl)pyridin-3-yl)benzo[d]isoxazol-3-amine], the IC50 (Mus musculus, MPC-11, MPC11) was determined as 1800 nM.

On to `Cc1cc(-c2ncccc2-c2ccc3onc(N)c3c2)ccc1F` [compound 795, 5-(2-(4-Fluoro-3-methylphenyl)pyridin-3-yl)benzo[d]isoxazol-3-amine], for which the IC50 (Mus musculus, MPC-11, MPC11) was 8100 nM.

Turning to `Nc1noc2ccc(-c3cccnc3-c3ccc(F)c(Cl)c3)cc12` [compound 796, 5-(2-(3-Chloro-4-fluorophenyl)pyridin-3-yl)benzo[d]isoxazol-3-amine], the IC50 (Mus musculus, MPC-11, MPC11) was 14000 nM.

With `Nc1noc2cc(-c3cccnc3-c3ccc(F)c(Cl)c3)ccc12` [compound 797, 6-(2-(3-Chloro-4-fluorophenyl)pyridin-3-yl)benzo[d]isoxazol-3-amine], under “Mus musculus, MPC-11, MPC11”, the IC50 is 3810 nM.

As to `Nc1noc2cc(-c3cccnc3-c3cccc(Cl)c3)ccc12` [compound 798, 6-(2-(3-Chlorophenyl)pyridin-3-yl)benzo[d]isoxazol-3-amine], the IC50 (Mus musculus, MPC-11, MPC11) was 2620 nM.

As to `Nc1noc2ccc(-c3cccnc3-c3cccc(Cl)c3)cc12` [compound 799, 5-(2-(3-Chlorophenyl)pyridin-3-yl)benzo[d]isoxazol-3-amine], for the setting “Mus musculus, MPC-11, MPC11”, the IC50 amounted to 14600 nM.

With `Nc1n[nH]c2cc(-c3cccnc3-c3ccc(F)c(Cl)c3)ccc12` [compound 800, 6-(2-(3-Chloro-4-fluorophenyl)pyridin-3-yl)-1H-indazol-3-amine], the IC50 (Mus musculus, MPC-11, MPC11) came out at 879 nM.

For `Cc1cc(-c2ncccc2-c2ccc3ncc(C(=O)NCC45CCCN4CCC5)n3c2)ccc1F` [compound 802, 6-(2-(4-Fluoro-3-methylphenyl)pyridin-3-yl)-N-((tetrahydro-1H-pyrrolizin-7a(5H)-yl)methyl)imidazo[1,2-a]pyridine-3-carboxamide], the IC50 (Mus musculus, MPC-11, MPC11) is 5830 nM.

In the case of `Cc1cc(-c2ncccc2-c2ccc3ncc(C(=O)NCCC45CCCN4CCC5)n3c2)ccc1F` [compound 803, 6-(2-(4-Fluoro-3-methylphenyl)pyridin-3-yl)-N-(2-(tetrahydro-1H-pyrrolizin-7a(5H)-yl)ethyl)imidazo[1,2-a]pyridine-3-carboxamide], under “Mus musculus, MPC-11, MPC11”, the IC50 turned out to be 2260 nM.

As for `Cc1cc(-c2ncccc2-c2ccn3ncc(C(=O)NCC45CCCN4CCC5)c3c2)ccc1F` [compound 804, 5-(2-(4-Fluoro-3-methylphenyl)pyridin-3-yl)-N-((tetrahydro-1H-pyrrolizin-7a(5H)-yl)methyl)pyrazolo[1,5-a]pyridine-3-carboxamide], the IC50 (Mus musculus, MPC-11, MPC11) worked out at 10100 nM.

`Cc1cc(-c2ncccc2-c2ccn3ncc(C(=O)NCCC45CCCN4CCC5)c3c2)ccc1F` [compound 805, 5-(2-(4-Fluoro-3-methylphenyl)pyridin-3-yl)-N-(2-(tetrahydro-1H-pyrrolizin-7a(5H)-yl)ethyl)pyrazolo[1,5-a]pyridine-3-carboxamide]: the IC50 (Mus musculus, MPC-11, MPC11) was determined as 953 nM.

With `Cc1cc(-c2ncccc2-c2cn3ccnc3cc2C)ccc1F` [compound 808, 6-(2-(4-Fluoro-3-methylphenyl)pyridin-3-yl)-7-methylimidazo[1,2-a]pyridine], the IC50 (Mus musculus, MPC-11, MPC11) was 1540 nM.

For `Cc1cc(-c2ncccc2-c2ccc3ncnn3c2C)ccc1F` [compound 809, 6-(2-(4-Fluoro-3-methylphenyl)pyridin-3-yl)-5-methyl-[1,2,4]triazolo[1,5-a]pyridine], the IC50 (Mus musculus, MPC-11, MPC11) stood at 4000 nM.

As for `Cc1c(-c2cccnc2-c2ccc(F)c(Cl)c2)ccc2ncnn12` [compound 810, 6-(2-(3-Chloro-4-fluorophenyl)pyridin-3-yl)-5-methyl-[1,2,4]triazolo[1,5-a]pyridine], the IC50 (Mus musculus, MPC-11, MPC11) amounted to 5780 nM.

As for `Cc1c(-c2cccnc2-c2cccc(Cl)c2)ccc2ncnn12` [compound 811, 6-(2-(3-Chlorophenyl)pyridin-3-yl)-5-methyl-[1,2,4]triazolo[1,5-a]pyridine], under “Mus musculus, MPC-11, MPC11”, the IC50 worked out at 2920 nM.

On to `Cc1c(-c2cccnc2-c2cc(Cl)ccc2F)ccc2ncnn12` [compound 812, 6-(2-(5-Chloro-2-fluorophenyl)pyridin-3-yl)-5-methyl-[1,2,4]triazolo[1,5-a]pyridine], for which the IC50 (Mus musculus, MPC-11, MPC11) came out at 2140 nM.

Turning to `Cc1c(-c2cccnc2-c2cc(Cl)c(F)cc2F)ccc2ncnn12` [compound 813, 6-(2-(5-Chloro-2,4-difluorophenyl)pyridin-3-yl)-5-methyl-[1,2,4]triazolo[1,5-a]pyridine], the IC50 (Mus musculus, MPC-11, MPC11) stood at 2430 nM.

`CC(=O)NCCNC(=O)c1cnc2ccc(-c3cccnc3-c3ccc(F)c(C)c3)cn12` [compound 815, N-(2-Acetamidoethyl)-6-(2-(4-fluoro-3-methylphenyl)pyridin-3-yl)imidazo[1,2-a]pyridine-3-carboxamide]: the IC50 (Mus musculus, MPC-11, MPC11) was 941 nM.

As to `CC(=O)NCCCNC(=O)c1cnc2ccc(-c3cccnc3-c3ccc(F)c(C)c3)cn12` [compound 816, N-(3-Acetamidopropyl)-6-(2-(4-fluoro-3-methylphenyl)pyridin-3-yl)imidazo[1,2-a]pyridine-3-carboxamide], the IC50 (Mus musculus, MPC-11, MPC11) was 1610 nM.

Regarding `Cc1cc(-c2ncccc2-c2ccc3ncc(C(=O)NCCN4CCOC4=O)n3c2)ccc1F` [compound 817, 6-(2-(4-Fluoro-3-methylphenyl)pyridin-3-yl)-N-(2-(2-oxooxazolidin-3-yl)ethyl)imidazo[1,2-a]pyridine-3-carboxamide], the IC50 (Mus musculus, MPC-11, MPC11) amounted to 584 nM.

In the case of `Nc1ncnc2ccc(-c3cccnc3-c3cc(Cl)ccc3F)cc12` [compound 818, 6-(2-(5-Chloro-2-fluorophenyl)pyridin-3-yl)quinazolin-4-amine], the IC50 (MPC11) worked out at 77.4 nM.

For the molecule `Nc1ncnc2ccc(-c3cccnc3-c3cc(Cl)c(F)cc3F)cc12` [compound 819, 6-(2-(5-Chloro-2,4-difluorophenyl)pyridin-3-yl)quinazolin-4-amine], the IC50 (MPC11) amounted to 119 nM.

Take `COc1ncnc2ccc(-c3cccnc3-c3cc(Cl)ccc3F)cc12` [compound 820, 6-(2-(5-Chloro-2-fluorophenyl)pyridin-3-yl)-4-methoxyquinazoline]: the IC50 (Mus musculus, MPC-11, MPC11) was found to be 3060 nM.

Take `COc1ncnc2ccc(-c3cccnc3-c3cc(Cl)c(F)cc3F)cc12` [compound 821, 6-(2-(5-Chloro-2,4-difluorophenyl)pyridin-3-yl)-4-methoxyquinazoline]: the IC50 (Mus musculus, MPC-11, MPC11) amounted to 2160 nM.

On to `O=c1[nH]cnc2ccc(-c3cccnc3-c3cc(Cl)ccc3F)cc12` [compound 822, 6-(2-(5-Chloro-2-fluorophenyl)pyridin-3-yl)quinazolin-4(3H)-one], for which the IC50 (Mus musculus, MPC-11, MPC11) was determined as 127 nM.

Consider `O=c1[nH]cnc2ccc(-c3cccnc3-c3cc(Cl)c(F)cc3F)cc12` [compound 823, 6-(2-(5-Chloro-2,4-difluorophenyl)pyridin-3-yl)quinazolin-4(3H)-one], for which, where the note is “Mus musculus, MPC-11, MPC11”, the IC50 amounted to 214 nM.

As to `Cc1cc(-c2ncccc2-c2ccc3nccc(N)c3c2)ccc1F` [compound 836, 6-(2-(4-Fluoro-3-methylphenyl)pyridin-3-yl)quinolin-4-amine], the IC50 (Mus musculus, MPC-11, MPC11) was determined as 5940 nM.

For the molecule `Nc1ccnc2ccc(-c3cccnc3-c3ccc(F)c(Cl)c3)cc12` [compound 837, 6-(2-(3-Chloro-4-fluorophenyl)pyridin-3-yl)quinolin-4-amine], for the setting “Mus musculus, MPC-11, MPC11”, the IC50 came to 4860 nM.

In the case of `COc1ccnc2ccc(-c3cccnc3-c3cc(Cl)ccc3F)cc12` [compound 840, 6-(2-(5-Chloro-2-fluorophenyl)pyridin-3-yl)-4-methoxyquinoline], the IC50 (Mus musculus, MPC-11, MPC11) amounted to 8140 nM.

On to `COc1ccnc2ccc(-c3cccnc3-c3cccc(Cl)c3)cc12` [compound 841, 6-(2-(3-Chlorophenyl)pyridin-3-yl)-4-methoxyquinoline], for which, under “Mus musculus, MPC-11, MPC11”, the IC50 stood at 7640 nM.
